Where a name gives a salt, the structure may show the parent alone.

One assay deals with Acinetobacter baumannii ATCC17961. Description: Antimicrobial susceptibility testing: 90% growth inhibitory concentration (IC90) determination. It is filed as cell-based. Conditions: Acinetobacter baumannii ATCC17961; Iso-Sensitest broth; growth by OD 600 nm over 16 h; 90% growth inhibitory concentration; read-out: ATCC 17961 IC90. The gist of the method: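 Broth microdilution in Iso-Sensitest medium with twofold dilutions (e.g. 50 to 0.097 μM final) and inoculum ~5×10^(5) CFU/ml, 35±2 °C. OD600 was followed for 16 h; IC90 was derived from inhibition during logarithmic growth.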
The IC90 is the concentration needed for an effect of 90%. Consider `Cn1c(-c2cn(-c3ncccn3)nc2C(F)(F)F)cnc1C(=O)Nc1ccc(C(=O)N2CCN(C(=O)[C@@H]3[C@@H](O)CC[N+]3(C)C)CC2)c(Cl)c1` [Example B3, N-[3-chloro-4-[4-[(2S,3S)-3-hydroxy-1,1-dimethyl-pyrrolidin-1-ium-2-carbonyl]piperazine-1-carbonyl]phenyl]-1-methyl-5-[1-pyrimidin-2-yl-3-(trifluoromethyl)pyrazol-4-yl]imidazole-2-carboxamide; formate], for which the IC90 turned out to be 3800 nM. For `Cn1c(-c2cn(-c3ccc([N+](=O)[O-])cn3)nc2C(F)(F)F)cnc1C(=O)Nc1ccc(C(=O)N2CCN(C(=O)[C@@H]3[C@@H](O)CC[N+]3(C)C)CC2)c(Cl)c1` [Example B7, N-[3-chloro-4-[4-[(2S,3S)-3-hydroxy-1,1-dimethyl-pyrrolidin-1-ium-2-carbonyl]piperazine-1-carbonyl]phenyl]-1-methyl-5-[1-(5-nitro-2-pyridyl)-3-(trifluoromethyl)pyrazol-4-yl]imidazole-2-carboxamide; formate], the IC90 came out at 1600 nM. As to `CNc1ccc(-n2cc(-c3cnc(C(=O)Nc4ccc(C(=O)N5CCN(C(=O)C[N+]6(C)CCC(O)C6)CC5)c(Cl)c4)n3C)c(C(F)(F)F)n2)nc1` (stereo not drawn) [Example E5, N-[3-chloro-4-[4-[2-(3-hydroxy-1-methyl-pyrrolidin-1-ium-1-yl)acetyl]piperazine-1-carbonyl]phenyl]-1-methyl-5-[1-[5-(methylamino)-2-pyridyl]-3-(trifluoromethyl)pyrazol-4-yl]imidazole-2-carboxamide; formate], the IC90 came out at 220 nM. Consider `Cn1c(-c2cn(-c3ccc(N)cn3)nc2C(F)(F)F)cnc1C(=O)Nc1ccc(C(=O)N2CCN(C(=O)C[N+]3(C)CCC(O)C3)CC2)c(Cl)c1` (stereo not drawn) [Example D11, 5-[1-(5-amino-2-pyridyl)-3-(trifluoromethyl)pyrazol-4-yl]-N-[3-chloro-4-[4-[2-(3-hydroxy-1-methyl-pyrrolidin-1-ium-1-yl)acetyl]piperazine-1-carbonyl]phenyl]-1-methyl-imidazole-2-carboxamide; formate], for which the IC90 was 210 nM. Take `Cn1c(-c2cn(-c3ccc(C(N)=O)cn3)nc2C(F)(F)F)cnc1C(=O)Nc1ccc(C(=O)N2CCN(C(=O)C3CC[N+](C)(C)CC3)CC2)c(Cl)c1` [Example A2, 6-[4-[2-[[3-chloro-4-[4-(1,1-dimethylpiperidin-1-ium-4-carbonyl)piperazine-1-carbonyl]phenyl]carbamoyl]-3-methyl-imidazol-4-yl]-3-(trifluoromethyl)pyrazol-1-yl]pyridine-3-carboxamide; formate]: the IC90 turned out to be 980 nM. With `Cc1nn(-c2ccc(N)cn2)cc1-c1cnc(C(=O)Nc2ccc(C(=O)N3CCN(C(=O)C4CC[N+](C)(C)CC4)CC3)c(Cl)c2)n1C` [Example J3, 5-[1-(5-amino-2-pyridyl)-3-methyl-pyrazol-4-yl]-N-[3-chloro-4-[4-(1,1-dimethylpiperidin-1-ium-4-carbonyl)piperazine-1-carbonyl]phenyl]-1-methyl-imidazole-2-carboxamide; formate], the IC90 was found to be 10000 nM. As for `Cn1c(-c2cn(-c3ccc(N)cn3)nc2C(F)(F)F)cnc1C(=O)Nc1ccc(C(=O)N2CCN(C(=O)[C@@H]3[C@@H](O)CC[N+]3(C)C)CC2)c(Cl)c1` (racemic) [Example D2, 5-[1-(5-amino-2-pyridyl)-3-(trifluoromethyl)pyrazol-4-yl]-N-[3-chloro-4-[4-[(2S,3S)-3-hydroxy-1,1-dimethyl-pyrrolidin-1-ium-2-carbonyl]piperazine-1-carbonyl]phenyl]-1-methyl-imidazole-2-carboxamide; formate], the IC90 amounted to 400 nM. The same measure, in the same setting: for `COc1ccc(-n2cc(-c3cnc(C(=O)Nc4ccc(C(=O)N5CCN(C(=O)C[N+]6(C)CC[C@@H](O)C6)CC5)c(Cl)c4)n3C)c(C(F)(F)F)n2)nc1` (stereo partly drawn) [Example A7, N-[3-chloro-4-[4-[2-[(3R)-3-hydroxy-1-methyl-pyrrolidin-1-ium-1-yl]acetyl]piperazine-1-carbonyl]phenyl]-5-[1-(5-methoxy-2-pyridyl)-3-(trifluoromethyl)pyrazol-4-yl]-1-methyl-imidazole-2-carboxamide; formate] the value was 550 nM; for `Cn1c(-c2cn(-c3ccc(N)cn3)nc2C(F)(F)F)cnc1C(=O)Nc1ccc(C(=O)N2CCN(C(=O)C3CC[N+](C)(C)CC3)CC2)c(Cl)c1` [Example D3, 5-[1-(5-amino-2-pyridyl)-3-(trifluoromethyl)pyrazol-4-yl]-N-[3-chloro-4-[4-(1,1-dimethylpiperidin-1-ium-4-carbonyl)piperazine-1-carbonyl]phenyl]-1-methyl-imidazole-2-carboxamide; formate], 150 nM.

The assay is the same for the next values; noted with them: Acinetobacter baumannii, ATCC17961, 16 h, read-out: ATCC 17961 IC90.
On to `Cn1c(-c2cn(-c3ccc(N)cn3)nc2C(F)(F)F)cnc1C(=O)Nc1ccc(C(=O)N[C@H]2[C@@H]3CN(C(=O)N[C@@H]4C[N+](C)(C)C[C@H]4O)C[C@@H]32)c(Cl)c1` (racemic) [Example D18, (exo)-6-[[4-[[5-[1-(5-Aminopyridin-2-yl)-3-(trifluoromethyl)pyrazol-4-yl]-1-methylimidazole-2-carbonyl]amino]-2-chlorobenzoyl]amino]-N-[rac-(trans)-4-hydroxy-1,1-dimethylpyrrolidin-1-ium-3-yl]-3-azabicyclo[3.1.0]hexane-3-carboxamide; formate], for which the IC90 was 290 nM. Take `Cn1c(-c2cn(-c3ncccn3)nc2C(F)(F)F)cnc1C(=O)Nc1ccc(C(=O)N2CCN(C(=O)C3CC[N+](C)(CC4CNC4)CC3)CC2)c(Cl)c1` (stereo not drawn) [Example C1, N-[4-[4-[1-(Azetidin-3-ylmethyl)-1-methyl-piperidin-1-ium-4-carbonyl]piperazine-1-carbonyl]-3-chloro-phenyl]-1-methyl-5-[1-pyrimidin-2-yl-3-(trifluoromethyl)pyrazol-4-yl]imidazole-2-carboxamide; formate]: the IC90 was 410 nM.

Consider `Cn1c(-c2cn(-c3ccc(N)nn3)nc2C(F)(F)F)cnc1C(=O)Nc1ccc(C(=O)N2CCN(C(=O)C3CC[N+](C)(C)CC3)CC2)c(Cl)c1` [Example K1, 5-[1-(6-Aminopyridazin-3-yl)-3-(trifluoromethyl)pyrazol-4-yl]-N-[3-chloro-4-[4-(1,1-dimethylpiperidin-1-ium-4-carbonyl)piperazine-1-carbonyl]phenyl]-1-methyl-imidazole-2-carboxamide; 2,2,2-trifluoroacetate], for which the IC90 came to 1600 nM.

Values taken from US12655126B2, “Imidazole-pyrazole derivatives as antibacterials” (Hoffmann-La Roche Inc., priority 2020, dated 2026).
